Reference: patent US20080015147A1, “Method for inhibiting neuronal cell death” (priority 2006, published 2008)
Entries after “also recorded” stand apart in the source; their conditions may differ.

What was measured:
Format in all cases: cell-based, mouse
N38 cells [1] = assay: Cell proliferation by direct hemocytometer counts; details: for total cell numbers relative to vehicle: 48 hrs, 2×10^−7 M
Procedure: At 24 and 48 hrs, the medium was replaced with medium buffered at pH 6.8, 7.4, 8.0 or 8.4. Half of the cell groups received (2×10^−7 M) TCAP-1, whereas the other half received phosphate buffered saline (PBS) pH 7.4 containing 8 g NaCl, 0.2 g KCl, 1.4 g Na2HPO4, 0.2 g KH2PO4 in. 800 mL ddH2O. For all groups, 4 replicates were run. Digital pictures were taken at 24, 48 and 72 hrs using an Olympus IX&1 inverted microscope at a magnification of 200× and analyzed using LabWorks 4.0 Image Acquisition and Analysis software (UltraViolet Products Ltd).
(§1) The effect of TCAP-1 on cell proliferation at each pH was examined by direct counts using a hemocytometer and indirectly by assessing mitochondrial activity using a colorimetric MTT (3-[4,5-dimethylthiazol-2-yl]-2,5-diphenyl tetrazolium bromide) assay on cultured N38 cells. For hemocytometer counts, the cultures were incubated for 24 and 48 hrs. The cells were suspended using 1 ml of 0.25% Trypsin with EDTA (Gibco-Invitrogen, Burlington, Canada), centrifuged at 1600 RPM for 4 min, and resuspended with PBS. The cells in 50 μl aliquots were vortexed and counted on a hemocytometer.

N38 cells [2] = assay: MTT assay (mitochondrial activity); details: for MTT activity (optical density): 48 hrs, 2×10^−7 M
Procedure: as §1
A (3-4,5-dimethylthiazol-2-yl]-2,5-diphenyl tetrazolium bromide) MTT assay was conducted using the In Vitro Toxicology Assay Kit: MTT based (Sigma, St. Louis). The cells were cultured for the MTT assay at 24 and 48 hours and were incubated at 37° C. in 5% CO2 for 3 hrs in the presence of MTT 200 μl/2 ml medium. The samples were mixed by shaking the plate horizontally for 30 min. The background absorbance of the multi-well plates was determined at 690 nm and subtracted from the 570 nm measurement.

Akt = Akt western blot; details: all pH treatments; 48 hrs
Procedure: Western blots using Akt and phosphorylated Akt (P-Akt) primary antibodies were conducted on all conditions of the cultured N38 cells to determine whether TCAP was preventing cell death by phosphorylation. The same western blot procedure outlined above was repeated with an Akt primary antibody (Cell Signalling, Beverly) at a titer of 1:500, followed by membrane incubation with anti-rabbit HRP-conjugated secondary antibody (Amersham, Baie d'Urfé) at 1:3000, followed by exposure on Kodak X-OMAT Blue film (Perkin Elmer Canada Inc, Vaudreuil-Dorion) for 30 min. Phospho Akt expression at 48 hrs was determined using the method described above with a PAkt primary antibody (Cell Signalling 9271) at 1:1000 followed by membrane incubation with anti-rabbit HRP-conjugated secondary antibody (Amersham, Baie d'Urfé) at 1:2000 followed by exposure on Kodak X-OMAT Blue film (Perkin Elmer Canada Inc, Vaudreuil-Dorion) overnight. Cultured N38 cells were serum-starved for 48 hours in order to induce phosphorylation and following the same protocol above were loaded as a control. Total optical density of the blots, were quantified using LabWorks 4.0 Image Acquisition and Analysis Software from Ultra-Violet Products Ltd. (UVP).

N38 cells [3] = assay: Bromodeoxyuridine (BrdU) incorporation assay; details: 24 or 48 hrs; pH extremes
Text: The evaluation of cell cycle progression is important when assessing the viability of a cell population. The cell cycle is a sequence of stages that a cell passes through between one division and the next. The cell cycle oscillates between mitosis and the interphase, which is divided into G, S, and G 2. In the G phase there is a high rate of biosynthesis and growth; in the S phase there is the doubling of the DNA content as a consequence of chromosome replication; in the G 2 phase the final preparations for cell division (cytokinesis) are made (Raza, 1985). In order to determine whether TCAP was increasing cell cycle efficiency, a bromodeoxyuridine (BrdU) non-isotopic enzyme immunoassay was conducted (Calbiochem, Canada). BrdU incorporation into newly synthesized DNA of actively proliferating cells enables one to quantify cell cycle progression and the population of cells entering the S phase(Gratzner, 1982; Raza, 1985).
N38 cells were grown in a 96-well culture plate using 100 μl at an initial density of 2×10^5 cells/ml. Controls consisted of a blank, one well containing only DMEM with no cells and background, and one well with cells but with no BrdU label added. […] Absorbance was measured on a SPECTRAmax Microplate spectrophotometer at dual wavelengths at 450-540 nm.

superoxide dismutase = assay: Superoxide dismutase western blot
[4] = system: cells treated with 50 μM H2O2; assay: H2O2 toxicity MTT assay

Substance: teneurin C-terminus associated peptide [TCAP-1]
- total number of cells vs vehicle (N38 cells [1]; 24 hrs, any pH condition): no significant differences in the total number of cells
- total cell numbers relative to vehicle (N38 cells [1]; pH 6.8): increased the number of cells
- total cell numbers relative to vehicle (N38 cells [1]; pH 6.8, listed as TCAP): inhibited the decrease in total cell numbers
- total cell numbers relative to vehicle (N38 cells [1]; pH 8.0): increased the number of cells
- total cell numbers relative to vehicle (N38 cells [1]; pH 8.0, listed as TCAP): inhibited the decrease in total cell numbers
- total cell numbers relative to vehicle (N38 cells [1]; pH 8.4): increased the number of cells
- total cell numbers relative to vehicle (N38 cells [1]; pH 8.4, listed as TCAP): inhibited the decrease in total cell numbers
- MTT activity (N38 cells [2]; pH 6.8): did not induce a significant effect on MTT activity
- MTT activity (N38 cells [2]; pH 7.4): did not induce a significant effect on MTT activity
- MTT activity (optical density) (N38 cells [2]; pH 8.0): significant increase in optical density; also recorded: increased the number of viable cells
- MTT activity (optical density) (N38 cells [2]; pH 8.4): significant increase in optical density; also recorded: increased the number of viable cells
- endogenous Akt on western blot, vehicle vs TCAP (Akt): no difference in endogenous Akt
- BrdU incorporation (N38 cells [3]): no significant results
- superoxide dismutase protein expression (superoxide dismutase; pH 6.8): no significant differences in the expression of the superoxide dismutase protein
- superoxide dismutase protein expression (superoxide dismutase; pH 7.4): no significant differences in the expression of the superoxide dismutase protein
- superoxide dismutase protein levels (superoxide dismutase; pH 8.0, p<0.05): reduced the pH-induced decline in superoxide dismutase levels
- superoxide dismutase protein levels (superoxide dismutase; pH 8.4, p<0.01): reduced the pH-induced decline in superoxide dismutase levels
- mitochondrial (MTT) activity vs vehicle ([4]; 0 hours): no effect
- MTT activity relative to vehicle ([4]; 6 to 48 hours): significant increase in MTT activity
- mitochondrial (MTT) activity vs vehicle ([4]; 6 hours, p<0.001): significantly increased mitochondrial activity
- mitochondrial (MTT) activity vs vehicle ([4]; 12 hours, p<0.001): significantly increased mitochondrial activity
- mitochondrial (MTT) activity vs vehicle ([4]; 24 hours, p<0.05): less significant effect
- mitochondrial (MTT) activity vs vehicle ([4]; 48 hours, p<0.001): significantly increased mitochondrial activity
